Test results from US20110190135A1, “SYNERGISTIC HERBICIDAL COMPOSITION CONTAINING PENOXSULAM AND BUTACHLOR” (DOW AGROSCIENCES LLC, priority 2010, published 2011).

Legend:
ECHCG - barnyard grass [1] = assay: Weed control in transplanted rice, Field trial #2; format: in vivo, Ehinochloa crus-galli; conditions: 28 days after application
Description: Field trials were conducted in rice using standard herbicide small plot research methodology. Plot size was 2 m^2 using 1.6 m diameter rings placed into the paddy soil with capability for flooding with water to represent flooded rice culture. There were 3 replicates per treatment. Rice was Japonica type that was sown in rice nursery boxes as per normal cultural practices, and then transplanted 30 days after sowing into flooded rings. The rice crop was grown using normal cultural practices for fertilization, seeding, watering, flooding and maintenance to ensure good growth of the crop and the weeds under seeded rice conditions in Taiwan. Ring plot water depth was maintained at 3 to 7 cm depth after transplanting. Just prior to treatment application, plot water was drained to maintain saturated soil in ring plot. Treatments were applied by hand and water was re-induced to 3 to 7 cm depth 24 hours after application. All treatments in the field trials were applied by mixing the treatments with soil just prior to application by hand into the ring plots at 5 to 7 days after transplanting. Commercially available products of penoxsulam and butachlor were mixed in water and sprayed onto 45 grams of soil, which is equivalent to the area treated at an application rate of 225 kg soil/ha. For each 2 m^2 plot, 45 g soil was mixed with the appropriate formulated product amounts to treat 2 m^2 to achieve the desired application rates based on unit area of application (hectare). Treatments were rated as compared to the untreated control plots. Visual weed control was rated on a scale of 0 to 100 percent, where 0 corresponds to no injury and 100 corresponds to complete kill. The treated plots and control plots were rated blind at various intervals after application. Ratings were based of Percent (%) Visual weed control, where 0 corresponds to no injury and 100 corresponds to complete kill. Colby's equation was used to determine the herbicidal effects expected from the mixtures (Colby, S. R. Calculation of the synergistic and antagonistic response of herbicide combinations. Weeds 1967 15, 20-22). The following equation was used to calculate the expected activity of mixtures containing two active ingredients, A and B: Expected=A+B−(A×B/100) A=observed efficacy of active ingredient A at the same concentration as used in the mixture; B=observed efficacy of active ingredient B at the same concentration as used in the mixture.

ISCRU - winklegrass = assay: Weed control in transplanted rice, Field trial #3; format: in vivo, Ischaemum rugosum; conditions: 42 days after application
Description: (§1) Field trials were conducted in rice using standard herbicide small plot research methodology. Plot size was 2 m^2 using 1.6 m diameter rings placed into the paddy soil with capability for flooding with water to represent flooded rice culture. There were 3 replicates per treatment. Rice was Japonica type that was sown in rice nursery boxes as per normal cultural practices, and then transplanted 30 days after sowing into flooded rings. The rice crop was grown using normal cultural practices for fertilization, seeding, watering, flooding and maintenance to ensure good growth of the crop and the weeds under seeded rice conditions in Taiwan. Ring plot water depth was maintained at 3 to 7 cm depth after transplanting. Just prior to treatment application, plot water was drained to maintain saturated soil in ring plot. Treatments were applied by hand and water was re-induced to 3 to 7 cm depth 24 hours after application. All treatments in the field trials were applied by mixing the treatments with soil just prior to application by hand into the ring plots at 5 to 7 days after transplanting. Commercially available products of penoxsulam and butachlor were mixed in water and sprayed onto 45 grams of soil, which is equivalent to the area treated at an application rate of 225 kg soil/ha. […]

ECHCG - barnyard grass [2] = assay: Weed control in transplanted rice, Field trial #1; format: in vivo, Ehinochloa crus-galli; conditions: 42 days after application
Description: as §1

MOOVA - pickerel weed = assay: Weed control in transplanted rice, Field trial #2; format: in vivo, Monochoria vaginalis; conditions: 28 days after application
Description: as §1

SMILES | ECHCG Obs - percent control observed (ECHCG - barnyard grass [1]; Penoxsulam 3.8 grams ai/ha) [%] | ECHCG Obs - percent control observed (ECHCG - barnyard grass [1]; Penoxsulam 7.5 grams ai/ha) [%] | ECHCG Obs - percent control observed (ECHCG - barnyard grass [1]; Penoxsulam 15 grams ai/ha) [%] | ISCRU Obs - percent control observed (ISCRU - winklegrass; Penoxsulam 13 grams ai/ha) [%] | ECHCG Obs - percent control observed (ECHCG - barnyard grass [2]; Penoxsulam 30 grams ai/ha) [%] | MOOVA Obs - percent control observed (MOOVA - pickerel weed; Penoxsulam 3.8 grams ai/ha) [%] | ECHCG Obs - percent control observed (ECHCG - barnyard grass [1]; Butachlor 300 grams ai/ha) [%] | ISCRU Obs - percent control observed (ISCRU - winklegrass; Butachlor 300 grams ai/ha) [%] | ECHCG Obs - percent control observed (ECHCG - barnyard grass [2]; Butachlor 600 grams ai/ha) [%] | MOOVA Obs - percent control observed (MOOVA - pickerel weed; Butachlor 300 grams ai/ha) [%]
COc1cnc(OC)n2nc(NS(=O)(=O)c3c(OCC(F)F)cccc3C(F)(F)F)nc12 [Penoxsulam] | 0 | 15 | 88 | 1 | 27 | 75 |  |  |  | 
CCCCOCN(C(=O)CCl)c1c(CC)cccc1CC [Butachlor, N-butoxymethyl-2-chloro-2′,6′-diethylacetanilide] |  |  |  |  |  |  | 13 | 23 | 0 | 26
